Laboratory results reported in ChEMBL document CHEMBL1121932, “Structure-anti-Parkinson activity relationships in the aminoadamantanes. Influence of bridgehead substitution” (J Med Chem, 1982).

Columns and labels:
Mus musculus [1] = test: Modification of circling behavior in mice with unilateral striatal lesions produced by 6-hydroxydopamine injection was measured at a dose of 0.10 mmol/kg; assay type: functional
Mus musculus [2] = test: Stimulation of spontaneous locomotor activity of compound was measured in mice at a dose of 0.10 mmol/kg); assay type: functional; parameters: unit not given here
Mus musculus [3] = test: Stimulation of spontaneous locomotor activity of compound was measured in mice at a dose of 0.025 mmol/kg); assay type: functional; parameters: unit not given here
Mus musculus [4] = test: Stimulation of spontaneous locomotor activity of compound was measured in mice at a dose of 0.20 mmol/kg); assay type: functional
Mus musculus [5] = test: Stimulation of spontaneous locomotor activity of compound was measured in mice at a dose of 0.05 mmol/kg); assay type: functional; parameters: unit not given here
[6] = Partition coefficient (logP); assay type: physicochemical; conditions: octanol/water
Mus musculus [7] = test: Stimulation of spontaneous locomotor activity of compound was measured in mice at a dose of 0.2 mmol/kg); assay type: functional
Mus musculus [8] = test: Modification of circling behavior in mice with unilateral striatal lesions produced by 6-hydroxydopamine injection was measured at a dose of 0.2 mmol/kg; assay type: functional
Mus musculus [9] = test: Stimulation of spontaneous locomotor activity of compound was measured in mice at a dose of 0.1 mmol/kg); assay type: functional
Mus musculus [10] = test: Stimulation of spontaneous locomotor activity of compound was measured in mice at a dose of 0.4 mmol/kg); assay type: functional
Mus musculus [11] = test: Modification of circling behavior in mice with unilateral striatal lesions produced by 6-hydroxydopamine injection was measured at a dose of 0.15 mmol/kg; assay type: functional
Mus musculus [12] = test: Modification of circling behavior in mice with unilateral striatal lesions produced by 6-hydroxydopamine injection was measured at a dose of 0.1 mmol/kg; assay type: functional
Mus musculus [13] = test: Stimulation of spontaneous locomotor activity of compound was measured in mice at a dose of 0.4 mmol/kg); Lethal; assay type: functional, organism-based
Mus musculus [14] = test: Modification of circling behavior in mice with unilateral striatal lesions produced by 6-hydroxydopamine injection was measured at a dose of 0.20 mmol/kg; assay type: functional
Mus musculus [15] = test: Stimulation of spontaneous locomotor activity of compound was measured in mice at a dose of 0.0125 mmol/kg); assay type: functional
Mus musculus [16] = test: Modification of circling behavior in mice with unilateral striatal lesions produced by 6-hydroxydopamine injection was measured at a dose of 0.05 mmol/kg; assay type: functional
Mus musculus [17] = test: Modification of circling behavior in mice with unilateral striatal lesions produced by 6-hydroxydopamine injection was measured at a dose of 0.027 mmol/kg; assay type: functional
Mus musculus [18] = test: Stimulation of spontaneous locomotor activity of compound was measured in mice at a dose of 0.01 mmol/kg); assay type: functional
Mus musculus [19] = test: Stimulation of spontaneous locomotor activity of compound was measured in mice at a dose of 0.04 mmol/kg); assay type: functional
Mus musculus [20] = test: Stimulation of spontaneous locomotor activity of compound was measured in mice at a dose of 0.02 mmol/kg); assay type: functional
Mus musculus [21] = test: Stimulation of spontaneous locomotor activity of compound was measured in mice at a dose of 0.30 mmol/kg); assay type: functional
Mus musculus [22] = test: Stimulation of spontaneous locomotor activity of compound was measured in mice at a dose of 0.15 mmol/kg); assay type: functional
Mus musculus [23] = test: Modification of circling behavior in mice with unilateral striatal lesions produced by 6-hydroxydopamine injection was measured at a dose of 0.013 mmol/kg; assay type: functional

Structure (SMILES) | Net turns/min (Mus musculus [1]) | Activity (Mus musculus [2]) | Activity (Mus musculus [3]) | Activity (Mus musculus [4]) | Activity (Mus musculus [5]) | logP [6] | Activity (Mus musculus [7]) | Activity (Mus musculus [9]) | Net turns/min (Mus musculus [11]) | other results
CCC12CC3CC(N)(C1)CC(CC)(C3)C2 | 1.6 | 716 | 154 | 478 | 383 | 4.36 |  |  |  | 
NC12CC3CC(CC(C3)C1)C2 [AMANTADINE] |  |  |  |  | 87 | 2.44 | 243 | 201 |  | Net turns/min (Mus musculus [8]): 1.1; Activity (Mus musculus [10]): 44
CC12CC3(C)CC(C)(C1)CC(N)(C2)C3 |  |  | 148 |  | 264 | 4.01 | 472 | 351 | 1.2 | Net turns/min (Mus musculus [12]): 1; Activity (Mus musculus [13]): Lethal
CCCC12CC3CC(CC(N)(C3)C1)C2 |  | 94 | 75 |  | 75 | 3.76 |  |  |  | 
CC12CC3CC(C)(C1)CC(N)(C3)C2 [MEMANTINE] | 2.6 | 916 | 264 | 1378 | 377 |  |  |  | 4.3 | Net turns/min (Mus musculus [14]): 2.6; Activity (Mus musculus [15]): 181; Net turns/min (Mus musculus [16]): 1
CC(N)Cc1ccccc1 (stereo not drawn) [AMPHETAMINE] |  |  |  |  |  |  |  |  |  | Net turns/min (Mus musculus [17]): 5.5; Activity (Mus musculus [18]): 177; Activity (Mus musculus [19]): 993; Activity (Mus musculus [20]): 562
CCC12CC3CC(CC(N)(C3)C1)C2 | 1.2 | 237 | 61 | 522 | 147 | 3.4 |  |  | 2 | Activity (Mus musculus [21]): 368; Net turns/min (Mus musculus [14]): 1.2; Activity (Mus musculus [22]): 432; Net turns/min (Mus musculus [16]): 1.3
CN1CCc2cccc3c2[C@H]1Cc1ccc(O)c(O)c1-3 [APOMORPHINE] |  |  |  |  |  |  |  |  |  | Net turns/min (Mus musculus [23]): 2.6
CC12CC3CC(C1)CC(N)(C3)C2 |  |  |  |  | 37 | 3.01 | 383 | 144 |  | 
